Assay [1] has as its system high-affinity IgE receptor (FcεRI). The experiment in a line: FcεRI expression amount on the cell surface of KU812 cells by flow cytometry. The conditions noted are these: for FcεRI expression suppressive rate (%): 24 hours. It counts as cell-based, human. The protocol:
By using antihuman FcRI antibody (CRA1), the FcεRI expression amount on the surface of human basophil-like cell line KU812 cells was analyzed by flow cytometry. Cells having been incubated by adding DMSO alone were compared with cells having been incubated by adding chrysin. The ratio of overexpression of FcεRI is indicated in percentage. As a basal medium for incubating cells, use was made of RPMI 1640 (Nissui, Japan), to which 100 U/mL of penicillin (Meiji Pharmaceutical Company, Tokyo, Japan), […] of streptomycin (Meiji Pharmaceutical Company, Tokyo, Japan), 12.5 mM of MaHCO3 (Wako Pure Chemical Industries, Osaka, Japan) and 10 mM of HEPES Wako Pure Chemical Industries) had been added. Fetal bovine serum (FBS) purchased form Bio Source International was added to the basal medium to give a concentration of 5 to 10%. Human basophil-like cell line KU812 employed in this experiment was assigned by Japan Collection of Research Bioresources (JCRB) and subcultured and maintained in RPMI 1640 medium comprising 5 to 10% of FBS at 37° C. in 5% CO2 gas under humidification. KU812 cells were incubated in RPMI 1640 medium, to which chrysin dissolved in DMSO had been added, for 0 to 24 hours. A system wherein the cells were incubated in the medium comprising DMSO alone was used as a control. After incubating, the cells were collected and incubated in 5% FBS-PBS, to which 10 μg/mL of antihuman FcεRI α chain mouse monoclonal antibody CRA-1 (Kyokuto Pharmaceutical) had been added, at 4° C. for 40 to 60 min. As a negative control, 10 μg/mL of mouse control IgG2b antibody (DAKO) was used. Then, the cells were washed with ice-cooled PBS once and incubated in 5% FBS-PBS, to which 10 μg/mL of antimouse IgG2b FITC-labeled antibody (Protos Immunoresearch) had been added, at 4° C. for 40 to 60 min. After incubating, the cells were washed with PBS and then resuspended in PBS. The cell suspension thus obtained was analyzed by flow cytometry. In the flow cytometry analysis, FACS Calibur (Becton Sickinson, Sunnyvale, Calif.) was employed. The secondary antibody reaction and the subsequent procedures were conducted in the dark and the cells were preserved on ice while conducting the analysis. KU812 cells (5×10^5 cells/mL) was incubated in 5% bovine fetal serum comprising RPMI 1640 medium, to which chrysin (0, 1, 5 and 10 μM) and apigenin (purchased from Aldrich Chem. Co., St. Louis, Mo.; 0, 1, 5 and 10 μM) had been added, for 24 hours. After incubating, the FcεRI expression level on the cell surface was measured by flow cytometry (experimental procedure: see [0047]).
On the technique in general: Flow cytometry measures light scatter and fluorescence of single cells or particles in a stream.

The next assay relates to FcεRI α- and γ-chains. The experiment in a line: Expression levels of the proteins constituting FcεRI (α- and γ-chains) in KU812 cells, immunoprecipitation and blotting. Format: cell-based, human. The following applies: serum-free, 6 hours, β-actin control. Here is the method: The expression of each of the FcεRI α- and γ-chains was detected by collecting cells having been incubated by adding chrysin, lysing the cells, conducting immunoprecipitation, subjecting the immunoprecipitate to DS-PAGE and then blotting. β-Actin was employed as a control.
KU812 cells (1×10^6 cells/mL) were incubated under serum-free conditions in RPMI 1640 medium, to which chrysin had been added, for 6 hours. After incubating, the cells were washed with PBS once and then lysed by shaking together with Lysis buffer (composition: 50 mM Tris-HCl pH 7.5, 1% Triton X-100, 150 mM NACl, 1 mM EDTA, 50 mM NaF, 30 mM Na4P2O7, 1 mM PMSF, 2 μg/mL aprotinin, 1 mM pervandate) at 4° C. for 30 min. Subsequently, the mixture was centrifuged at 12,000×g for 10 min at 4° C. to precipitate insoluble matters. The supernatant was collected and proteins were quantified. The samples were diluted with Lysis buffer so that all of them had the same protein concentration, thereby giving lysate samples.
Protein A Sepharose beads (Amersham Pharmacia Biotech) were shaken in Lysis buffer (composition: 50 mM Tris-HCl pH 7.5, 150 mM NACl, 1% Triton X-100, 1 mM EDTA, 50 mM NaF, 30 mM Na4P2O7, 1 mM PMSF, 2 μg/mL aprotinin), to which CRA-1 antibody had been added to give a final concentration of 1 μg/mL, for 2 to 4 hours at 4° C. so as to allow the beads to adsorb CRA-1 antibody. […]

SMILES strings stand for the structures.

With `O=c1cc(-c2ccccc2)oc2cc(O)cc(O)c12` [Chrysin, 5,7-dihydroxyflavone], the “FcεRI expression amount on cell surface” value in assay [1] (flow cytometry with CRA1 antibody, compared with DMSO alone) was “lowering”. For the same molecule, the “FcεRI expression suppressive rate (%)” value in assay [1] (single agent 1 μM) is 0%; in assay [1] (single agent 5 μM), 11.5%; in assay [1] (single agent 10 μM), 19.8%. Also, the “expression of the proteins constituting FcεRI (α- and γ-chains)” value with FcεRI α- and γ-chains is “suppressive effect”.

These data come from patent US20080262080A1, “Allergy Suppressive Agent” (KYUSHU UNIVERSITY, NATIONAL UNIVERSITY CORPORATION, priority 2004, published 2008).
